# From patent US20230012570A1, “BICYCLIC COMPOUND USED AS SELECTIVE ANDROGEN RECEPTOR MODULATOR” (MEDSHINE DISCOVERY INC., priority 2019, published 2023)
# Biological target: T1, androgen receptor (AR) (Homo sapiens, UniProt P10275)
# T1 sequence (P10275 1-920): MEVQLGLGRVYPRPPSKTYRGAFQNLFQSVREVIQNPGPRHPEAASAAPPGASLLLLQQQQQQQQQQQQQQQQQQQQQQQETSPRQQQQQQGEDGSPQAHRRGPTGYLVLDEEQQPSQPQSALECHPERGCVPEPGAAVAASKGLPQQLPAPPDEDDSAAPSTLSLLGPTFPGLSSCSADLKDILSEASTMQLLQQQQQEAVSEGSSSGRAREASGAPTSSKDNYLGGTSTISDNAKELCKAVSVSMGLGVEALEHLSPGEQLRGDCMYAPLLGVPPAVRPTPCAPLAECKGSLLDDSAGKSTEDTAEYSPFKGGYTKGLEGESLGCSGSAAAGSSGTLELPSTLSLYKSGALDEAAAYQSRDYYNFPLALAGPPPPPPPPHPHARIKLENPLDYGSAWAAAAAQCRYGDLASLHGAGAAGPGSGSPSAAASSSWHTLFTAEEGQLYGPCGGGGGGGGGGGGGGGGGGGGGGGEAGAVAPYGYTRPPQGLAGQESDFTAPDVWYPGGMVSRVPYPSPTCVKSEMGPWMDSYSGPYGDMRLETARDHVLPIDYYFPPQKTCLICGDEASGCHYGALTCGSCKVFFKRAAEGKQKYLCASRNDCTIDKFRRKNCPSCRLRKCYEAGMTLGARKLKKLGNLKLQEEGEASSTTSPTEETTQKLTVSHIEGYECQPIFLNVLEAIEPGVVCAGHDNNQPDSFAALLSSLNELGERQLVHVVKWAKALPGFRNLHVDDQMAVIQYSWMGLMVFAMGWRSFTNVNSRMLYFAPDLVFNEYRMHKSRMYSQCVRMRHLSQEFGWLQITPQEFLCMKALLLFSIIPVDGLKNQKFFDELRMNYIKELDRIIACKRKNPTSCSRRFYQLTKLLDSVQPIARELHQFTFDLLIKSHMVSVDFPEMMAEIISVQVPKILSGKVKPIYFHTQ
# Assay: Agonistic effect of test compounds on androgen receptor (AR), LiveBLAzer FRET reporter cell assay
# Type: cell-based
# Description: Experimental Embodiment 1: Agonistic Effect of Test Compounds on Androgen Receptor (AR)
# 1. Preparation of Compounds, Placing in Plates:
# 1.1 Preparation of compounds: the test compounds were diluted to the working concentration, and each compound was diluted by 4 times with Echo for 10 concentration gradients, and the compounds were added to a 384-well cell plate according to the microplate layout diagram, with 200 nL per well;
# 1.2 AR cell assay medium: 87% Opti-MEM (reduced serum medium), 10% Dialyzed FBS (dialyzed fetal bovine serum), 1% NEAA (non-essential amino acids), 1% sodium pyruvate and 1% penicillin-streptomycin;
# 1.3 culture medium, trypsin and Dulbecco's phosphate buffer were preheated in a 37° C. water bath;
# 1.4 the original medium in the cell culture flask was removed, and the cells were washed once with 6 mL of Dulbecco's phosphate buffer;
# 1.5 3.5 mL of trypsin was added to the cell culture flask, and the flask was gently shaken to make the trypsin fully contact with the cells, the trypsin was removed; after aspirating the trypsin, the culture flask was placed in a 37° C. incubator containing 5% CO2 for about 1 minute;
# 1.6 the cells were resuspended with 10 mL of cell detection medium, and about 0.8 mL of cell suspension was taken out for counting (ViCell XR)
# 1.7 the cell suspension was diluted with culture medium to 2.5×10^5 cells per mL;
# 1.8 40 !IL of cell suspension was added to each well of the cell plate, and 40 μL of cell culture medium was added to the other wells, and the cells were incubated in a 37° C. incubator containing 5% CO2 for 16 hours.
# 2. Reading the Board and Analyzing Data:
# 2.1 Preparation of solution A: 182 μL of DMSO was added to 200 μg of LiveBLAzer™-FRET B/G/g substrate (CCF4-AM). The solution A was packaged and stored in a refrigerator at −20° C.;
# 2.2 preparation of 6×substrate buffer: 15 μL of solution A was added to 150 μL of solution B, and the mixture was vortexed evenly, then 2335 μL of solution C was added to the above solution and vortexed evenly;
# 2.3 the cell culture plate was taken out, and 8μL of 6×substrate buffer was added to each well, shaken for 1 minute, and centrifuged at 1000 rpm for 10 seconds; after sealing the membrane, the cells were incubated at 23° C. for 2 hours, and the plate was read with Envision, and the curve EC50 value was fitted by Prism software.
compound,measurement,value
"N#Cc1ccc(N2CC3CC3C2C(O)C(F)(F)F)cc1Cl (single isomer, unassigned) [Compound 3A]",EC50,0.81 nM
